Read-outs that look alike come from different tables or passages of the source.

Experiment [1] has as its system recombinant HMPV CAN97-83 containing eGFP (MPV-GFP1). In words: HMPV antiviral assay Method-A (MPV-GFP1 eGFP fluorescence in Vero E6 cells). Format: cell-based, Human metapneumovirus (HMPV). Conditions: human metapneumovirus, Vero C1008, 120 h, read-out: HMPV EC50. Here is the method:
HMPV antiviral activity was evaluated using a recombinant version of HMPV CAN97-83 engineered to contain the coding sequence for enhanced green fluorescence protein (eGFP) in the 3′ end of the virus genome (MPV-GFP1, ViraTree). Vero E6 cells ([…]) were seeded at a density of 12,000 cells/100 μL/well into 96-well cell plates one day prior to the assay. On the day of screening, the cell culture medium was aspirated from the wells and cells were washed twice with serum-free Eagle's Modified Essential Medium (EMEM, ATCC #) containing 1% penicillin-streptomycin (Invitrogen) (SF-EMEM). Cell washes were performed by dispensing 100 μL SF-EMEM per well and immediately aspirating the wash medium from the well. Following the second wash step, serum-free OptiMEM (Invitrogen, Cat No.) (SF-OptiMEM) containing 0.5 μg/mL TPCK-Trypsin (VENDOR) and 1% penicillin-streptomycin was added to the cells at 50 μL/well. Compounds were added into the 96-well plates using a JANUS automated liquid handling system (VENDOR). Compounds were initially diluted 1:50 into an intermediate 96-well plate containing SF-OptiMEM prior to transfer to the assay plate (25 μL/well). Each of the test compounds were tested in duplicate wells at final concentrations starting from 8 μM or 2 μM using ½ stepwise dilutions for a total of 8 points. Virus infection was performed by preparing a working stock of MPV-GFP1 at a multiplicity of infection (MOI) equal to 0.05/25 μL and aliquoting 25 μL of virus inoculum to the compound and positive control wells. SF-OptiMEM was added (25 μL/well) to the appropriate wells to serve as a virus-free negative control for the assay. The final DMSO concentration of all wells is 0.5%. Plates were incubated at 32° C., 5% CO2 for 5 days.
After 5 days incubation, eGFP fluorescence intensity was measured at (X) […] wavelength using a Spectramax i3× plate reader (VENDOR). Percent viral inhibition was calculated using the following equation: y=[…]
Where XQ is the fluorescence intensity measured in a well containing recombinant MPV-GFP1-infected, compound-treated cells and XP is the average fluorescence intensity measured in the wells containing untreated cells infected with recombinant virus. EC50 values were then calculated by non-linear regression using a four parameter curve logistic equation. The curve fit model employed was XLFit Dose Response One Site Model 200: y=(A+(B/(1+((x/C)^D))))
Where A is the minimum y value, B is the maximum y value, C is the log EC50 value, and D is the slope factor. […] EC50 ranges are as follows: A<0.5 μM; B>0.5 μM.

In experiment [2] the test system is genotype A, "Long" strain RSV. In words: RSV-A assay (CPE protection in Hep-2 cells, ATPlite readout). The class given is cell-based, Human respiratory syncytial virus (HRSV). The settings on record: human respiratory syncytial virus, MOI 0.1, CPE protection. The procedure, abridged:
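Hep-2 cells (8,000/well) were treated with 2-fold serial compound dilutions in duplicate and infected with RSV at MOI 0.1. After 5 days, protection from cytopathic effect was measured as cell viability by ATPlite luminescence, and EC50 values were derived.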

In experiment [3] the test system is HMPV clinical isolate TN/1501/A1. In words: HMPV antiviral assay Method-B (clinical isolate TN/1501/A1 in LLC-MK2 cells, ATP-Lite readout). Conditions: human metapneumovirus, LLC-MK2, 144 h, hMPV WT1501 (clinical isolate TN/1501/A1), 6 days. Format: cell-based, Human metapneumovirus (HMPV). The procedure, abridged:
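EC50 derived by four-parameter logistic fit of percent cell health, measured by ATP-Lite luminescence and normalised to virus-only and uninfected-cell controls. Compounds run in duplicate from 10 μM top, 3-fold, 10 points. Infection: LLC-MK2 cells, MOI 0.014, 2 μg/mL final TPCK-trypsin, serum-free, 6 days at 37° C.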

The mark [4] stands for this setting: genotype A “Long” strain RSV, read-out: Human RSV-A (“Long”).
[5] abbreviates: RSV-A Long strain, read-out: Human RSV-A (“Long”) EC50.

As to `COc1cc(C(=O)NC[C@](O)(c2cc3c(c(-c4ccc(F)c(Cl)c4)n2)OC[C@]3(C)C(N)=O)C(F)(F)F)cc2cc(C)nnc12` [Example 10], the EC50 is less than 500 nM in experiment [1] and less than 200 nM in experiment [2] (setting [4]).
Regarding `COc1cc(C(=O)NC[C@](O)(c2cc3c(c(-c4ccc(F)cc4)n2)OC[C@]3(C)C(N)=O)C(F)(F)F)ccc1OC[C@@H](C)O` [Example 138], the EC50 in experiment [1] was more than 500 nM; in experiment [2] (setting [4]), less than 200 nM.
With `C[C@]1(C(N)=O)COc2c1cc([C@@](O)(CNC(=O)c1cc(Cl)c3nn(C(F)F)cc3c1)C(F)(F)F)nc2-c1ccc(F)c(Cl)c1` [Example 44], the EC50 in experiment [1] is less than 500 nM; in experiment [2] (setting [4]), less than 200 nM.
Turning to `C[C@@H](N)C(=O)Nc1nc2ccc(C(=O)NC[C@](O)(c3cc4c(c(-c5ccc(F)cc5)n3)OC[C@]4(C)C(N)=O)C(F)(F)F)cc2s1` [Example 154], the EC50 is more than 500 nM in experiment [1] and less than 200 nM in experiment [2] (setting [4]).
Taken in the same sequence, the figures for `C[C@]1(C(N)=O)COc2c1cc([C@@](O)(CNC(=O)c1ccc3nnc(C4CC4)cc3c1)C(F)(F)F)nc2-c1ccc(F)cc1` [Example 7] were less than 500 nM and less than 200 nM.
Taken in the same sequence, the figures for `Cc1nc2c(Cl)cc(C(=O)NC[C@](O)(c3cc4c(c(-c5ccc(F)cc5)n3)OC[C@]4(C)C(N)=O)C(F)(F)F)cc2s1` [Example 77] were less than 500 nM and less than 200 nM.
With `C[C@]1(C(N)=O)COc2c1cc([C@@](O)(CNC(=O)c1cc(F)c3nc(N)sc3c1)C(F)(F)F)nc2-c1ccc(F)c(F)c1` [Example 308], the EC50 is less than 500 nM in experiment [1] and less than 200 nM in experiment [2] (setting [4]).
Taken in the same sequence, the figures for `COc1cc(C(=O)NC[C@](O)(c2cc3c(c(-c4ccc(F)cc4)n2)OC[C@]3(C)C(N)=O)C(F)(F)F)cc2cc(C3CCC3)nn12` [Example 322] were more than 500 nM and less than 200 nM.
On the same counts, the results for `C[C@]1(C(N)=O)COc2c1cc([C@@](O)(CNC(=O)c1ccc3nc(CF)sc3c1)C(F)(F)F)nc2-c1ccc(F)cc1` [Example 142] are more than 500 nM and less than 200 nM.
Regarding `C[C@]1(C(N)=O)COc2c1cc([C@@](O)(CNC(=O)c1cc(F)c3nc(C4CC4)cn3c1)C(F)(F)F)nc2-c1ccc(F)cc1` [Example 57], the EC50 in experiment [1] is more than 500 nM; in experiment [2] (setting [4]), less than 200 nM.
On the same counts, the results for `COc1cc(C(=O)NC[C@](O)(c2cc3c(c(-c4ccc(F)cc4)n2)OC[C@]3(C)C(N)=O)C(F)(F)F)cc2cc(C3CC3)nnc12` [Example 81] are more than 500 nM and less than 200 nM.
`COc1cc(C(=O)NC[C@](O)(c2cc3c(c(-c4ccc(F)cc4)n2)OC[C@]3(C)C(N)=O)C(F)(F)F)ccc1OC[C@H](O)C(F)F` [Example 136]: the results for the EC50 in experiment [1] and in experiment [2] (setting [4]) were more than 500 nM and less than 200 nM, respectively.
Taken in the same sequence, the figures for `COc1cc(C(=O)NC[C@](O)(c2cc3c(c(-c4ccc(F)c(Cl)c4)n2)OC[C@]3(C)C(N)=O)C(F)(F)F)cc2cc(C3CC3)nnc12` [Example 86] were less than 500 nM and less than 200 nM.
With `C[C@]1(C(N)=O)COc2c1cc([C@@](O)(CNC(=O)c1cc(OC3CC3)c3nn(C4CC4)cc3c1)C(F)(F)F)nc2-c1ccc(F)cc1` [Example 26], the EC50 was less than 500 nM in experiment [1] and less than 200 nM in experiment [2] (setting [4]).
Regarding `COc1cc(C(=O)NC[C@](O)(c2cc3c(c(-c4ccc(F)c(Cl)c4)n2)OC[C@]3(C)C(N)=O)C(F)(F)F)cc2cn(C3CC3)nc12` [Example 28], the EC50 was less than 500 nM in experiment [1] and less than 200 nM in experiment [2] (setting [4]).
On the same counts, the results for `COc1cc(C(=O)NC[C@](O)(c2cc3c(c(-c4ccc(F)cc4)n2)OC[C@]3(C)C(N)=O)C(F)(F)F)cc2ccnnc12` [Example 6] are less than 500 nM and less than 200 nM.
Taken in the same sequence, the figures for `COc1cc(C(=O)NC[C@](O)(c2cc3c(c(-c4ccc(Cl)c(F)c4)n2)OC[C@]3(C)C(N)=O)C(F)(F)F)cc2cc(C3CC3)nn12` [Example 301] were less than 500 nM and less than 200 nM.
As for `CC(C)[C@@H](N)C(=O)Nc1nc2ccc(C(=O)NC[C@](O)(c3cc4c(c(-c5ccc(F)cc5)n3)OC[C@]4(C)C(N)=O)C(F)(F)F)cc2s1` [Example 156], the values for the EC50 in experiment [1] and in experiment [2] (setting [4]) were more than 500 nM and less than 200 nM, respectively.
Taken in the same sequence, the figures for `C[C@]1(C(N)=O)COc2c1cc([C@@](O)(CNC(=O)c1cc(Cl)c3nn(C4CC4)cc3c1)C(F)(F)F)nc2-c1ccc(F)c(Cl)c1` [Example 85] were less than 500 nM and less than 200 nM.
For `C[C@]1(C(N)=O)COc2c1cc([C@@](O)(CNC(=O)c1cc(Cl)c3[nH]c(C4CC4)nc3c1)C(F)(F)F)nc2-c1ccc(F)cc1` [Example 94], the EC50 in experiment [1] was more than 500 nM; in experiment [2] (setting [4]) it was less than 200 nM.
Turning to `C[C@]1(C(N)=O)COc2c1cc([C@@](O)(CNC(=O)c1ccc3nc(NCCN)sc3c1)C(F)(F)F)nc2-c1ccc(F)cc1` [Example 165], the EC50 is more than 500 nM in experiment [1] and less than 200 nM in experiment [2] (setting [4]).
With `C[C@]1(C(N)=O)COc2c1cc([C@@](O)(CNC(=O)c1cc(F)c3nc(N)sc3c1)C(F)(F)F)nc2-c1ccc(Cl)cc1` [Example 307], the values for the EC50 in experiment [1] and in experiment [2] (setting [4]) were less than 500 nM and less than 200 nM, respectively.
For `COc1cc(C(=O)NC[C@](O)(c2cc3c(c(-c4ccc(F)c(Cl)c4)n2)OC[C@]3(C)C(N)=O)C(F)(F)F)cn2cc(C(F)F)nc12` [Example 65], the EC50 in experiment [1] was more than 500 nM; in experiment [2] (setting [4]) it was less than 200 nM.
Consider `Cn1cc2cc(C(=O)NC[C@](O)(c3cc4c(c(-c5ccc(F)cc5)n3)OC[C@]4(C)C(N)=O)C(F)(F)F)cc(OC3CC3)c2n1` [Example 27], for which the EC50 in experiment [1] was less than 500 nM; in experiment [2] (setting [4]) it was less than 200 nM.
In the case of `CCc1cc2cc(C(=O)NC[C@](O)(c3cc4c(c(-c5ccc(F)cc5)n3)OC[C@]4(C)C(N)=O)C(F)(F)F)cc(OC)c2nc1C` [Example 174], the EC50 in experiment [1] is more than 500 nM; in experiment [2] (setting [4]), less than 200 nM.
On the same counts, the results for `COc1cc(C(=O)NC[C@](O)(c2cc3c(c(-c4ccc(F)c(F)c4)n2)OC[C@]3(C)C(N)=O)C(F)(F)F)cc2cc(C(F)(F)F)cnc12` [Example 315] are less than 500 nM and less than 200 nM.
Take `COc1cc(C(=O)NC[C@](O)(c2cc3c(c(-c4ccc(F)cc4)n2)OC[C@]3(C)C(N)=O)C(F)(F)F)cc2cn[nH]c12` [Example 108]: the results for the EC50 in experiment [1] and in experiment [2] (setting [4]) were more than 500 nM and less than 200 nM, respectively.
On the same counts, the results for `C[C@]1(C(N)=O)COc2c1cc([C@@](O)(CNC(=O)c1cc(C3CC3)c3nn(C(F)F)cc3c1)C(F)(F)F)nc2-c1ccc(F)c(Cl)c1` [Example 48] are less than 500 nM and less than 200 nM.
As to `COc1cc(C(=O)NC[C@](O)(c2cc3c(c(-c4ccc(F)cc4)n2)OC[C@]3(C)C(N)=O)C(F)(F)F)cc2nc(C3CC3)[nH]c12` [Example 95], the EC50 in experiment [1] was more than 500 nM; in experiment [2] (setting [4]), less than 200 nM.
On to `COc1cc(C(=O)NC[C@](O)(c2cc3c(c(-c4ccc(F)cc4)n2)OC[C@]3(C)C(N)=O)C(F)(F)F)ccc1OCC1(O)CC1` [Example 134], for which the values for the EC50 in experiment [1] and in experiment [2] (setting [4]) were more than 500 nM and less than 200 nM, respectively.
With `COc1cc(C(=O)NC[C@](O)(c2cc3c(c(-c4ccc(F)cc4)n2)OC[C@]3(C)C(N)=O)C(F)(F)F)cc2cc(C(F)F)nnc12` [Example 1069], the EC50 was less than 200 nM in experiment [2] (setting [5]) and more than 500 nM in experiment [3].
Consider `COc1cc(C(=O)NC[C@](O)(c2cc3c(c(-c4ccc(F)cc4)n2)OC[C@]3(CF)C(N)=O)C2CC2)cc2cc(Cl)c(C)nc12` [Example 1056], for which the results for the EC50 in experiment [2] (setting [5]) and in experiment [3] were less than 200 nM and less than 500 nM, respectively.

The values above are taken from patent US12612412B2, “Antiviral heterocyclic compounds” (Enanta Pharmaceuticals, Inc., priority 2021, dated 2026).
